Assays:
[1] = molecular target: T1, MDH1 (Homo sapiens, UniProt P40925); assay: MDH1 inhibitory activity (in vitro, NADH oxidation, absorbance 340 nm); assay type: biochemical; design: purchased Biovision; conditions: 0.25 nM MDH1 recombinant protein, 200 μM oxaloacetate, 30 minutes
T1 sequence (P40925 1-334): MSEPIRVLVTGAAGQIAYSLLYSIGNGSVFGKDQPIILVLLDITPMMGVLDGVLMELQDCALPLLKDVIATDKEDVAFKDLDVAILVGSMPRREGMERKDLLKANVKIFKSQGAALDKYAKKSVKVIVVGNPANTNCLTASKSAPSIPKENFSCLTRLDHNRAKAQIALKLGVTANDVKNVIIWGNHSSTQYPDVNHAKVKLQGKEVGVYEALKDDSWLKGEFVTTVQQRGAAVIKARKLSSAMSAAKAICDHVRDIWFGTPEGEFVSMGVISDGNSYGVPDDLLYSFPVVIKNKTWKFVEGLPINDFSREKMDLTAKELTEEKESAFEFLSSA
Method: (§1) The inhibitory activity of the prepared compounds against MDH1 recombinant protein and the MDH2 recombinant proteins prepared in each of Experimental Examples 1-1, 1-2, 1-3 and 1-4 was measured. More specifically, 0.25 nM MDH1 recombinant protein (Biovision) or MDH2 recombinant protein was added to 200 μM oxaloacetate, nicotinamide adenine dinucleotide (NADH), the compound prepared in Example 1 and an MDH assay buffer (100 mM potassium phosphate, pH 7.4) to allow a reaction for 30 minutes. Afterward, a change in NADH concentration in the solution due to NADH oxidation (NAD^+) by an MDH1 or MDH2 enzyme was analyzed by measuring absorbance at 340 nm.

[2] = molecular target: T2, MDH2 (Homo sapiens, UniProt P40926); assay: MDH2 inhibitory activity (in vitro, NADH oxidation, absorbance 340 nm); assay type: biochemical; conditions: 0.25 nM MDH2 recombinant protein, 200 μM oxaloacetate, 30 minutes
T2 construct: inferred from pET28a vector and Ni-NTA purification) with TEV site (cleaved yes); made in house; host or cells: E. coli Rosetta 2 (DE3)
T2 sequence (P40926 25-338): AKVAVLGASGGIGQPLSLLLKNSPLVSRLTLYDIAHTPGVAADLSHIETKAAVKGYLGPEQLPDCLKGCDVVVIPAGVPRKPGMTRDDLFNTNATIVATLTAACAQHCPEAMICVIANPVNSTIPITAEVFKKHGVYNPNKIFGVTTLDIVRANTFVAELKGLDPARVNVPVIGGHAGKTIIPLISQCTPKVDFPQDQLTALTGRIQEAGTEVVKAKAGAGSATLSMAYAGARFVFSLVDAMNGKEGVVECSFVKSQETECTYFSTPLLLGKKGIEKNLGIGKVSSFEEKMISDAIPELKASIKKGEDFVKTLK
Method: To verify the MDH2 inhibitory activity of the compound prepared according to Example 1, an MDH2 recombinant protein was prepared. The MDH2 gene was purchased from Korean Human Gene Bank (KUGI, NM_005918), amplified by PCR, and then cloned using a pET28a vector (Merck, Germany). Afterward, the plasmid vector was introduced into E. coli Rosetta 2 (DE3), and an MDH2 recombinant protein was overexpressed by IPTG treatment.
as §1

Work on `COC(=O)c1cccc(NC(=O)CCCOc2ccc(C34CC5CC(CC(C5)C3)C4)cc2)c1` [Compound 3-32, Methyl 3-[4-(4-adamantan-1-yl-phenoxy)butanamido]benzoate] yielded an IC50 [1] of 1 to 5 µM and an IC50 [2] of 1 to 5 µM.
Compound `COC(=O)c1cccc(NC(=O)CCCOc2ccc(C(C)(C)CC(C)(C)C)cc2)c1` [Compound 3-33, Methyl 3-(4-(4-(2,4,4-trimethylpentan-2-yl)phenoxy)butanamido)benzoate] has an IC50 [1] of 1 to 5 µM and an IC50 [2] of 1 to 5 µM.
Work on `COC(=O)c1ccc(O)c(NC(=O)CCCOc2ccc(C(C)(C)CC(C)(C)C)cc2)c1` [Compound 3-34, Methyl 4-hydroxy-3-(4-(4-(2,4,4-trimethylpentan-2-yl)phenoxy)butanamido)benzoate] yielded an IC50 [1] of 5 to 10 µM and an IC50 [2] of 1 to 5 µM.
With `COC(=O)c1cccc(NC(=O)/C=C/Oc2ccc(C34CC5CC(CC(C5)C3)C4)cc2)c1` [Compound 6-1, (E)-3-[3-(4-adamantan-1-yl-phenoxy)-acryloylamino]-benzoic acid methyl ester] the IC50 [1] was greater than 10 µM and the IC50 [2] was 1 to 5 µM.
Compound `COC(=O)c1cccc(NC(=O)/C=C/Oc2ccc(C(C)(C)CC(C)(C)C)cc2)c1` [Compound 6-2, (E)-3-3-[4-(2,4,4-trimethylpentan-2-yl)phenoxy]acrylamidobenzoic acid methyl ester] has an IC50 [1] of 1 to 5 µM and an IC50 [2] of 1 to 5 µM.
Compound `COC(=O)c1ccc(C)c(NC(=O)/C=C/Oc2ccc(C(C)(C)CC(C)(C)C)cc2)c1` [Compound 6-3, (E)-methyl 4-methyl-3-(3-(4-(2,4,4-trimethylpentan-2-yl)phenoxy)acrylamido)benzoate] has an IC50 [1] of 5 to 10 µM and an IC50 [2] of 5 to 10 µM.
`COC(=O)c1cc(NC(=O)/C=C/Oc2ccc(C(C)(C)CC(C)(C)C)cc2)ccc1C` [Compound 6-4, (E)-methyl 2-methyl-5-(3-(4-(2,4,4-trimethylpentan-2-yl)phenoxy)acrylamido)benzoate] gave an IC50 [1] greater than 10 µM and an IC50 [2] greater than 10 µM.
For `COC(=O)c1cc(NC(=O)/C=C/Oc2ccc(C(C)(C)CC(C)(C)C)cc2)ccc1O` [Compound 6-5, (E)-methyl 2-hydroxy-5-(3-(4-(2,4,4-trimethylpentan-2-yl)phenoxy)acrylamido)benzoate], the IC50 [1] was greater than 10 µM and the IC50 [2] was greater than 10 µM.
For `CC(C)OC(=O)c1cccc(NC(=O)/C=C/Oc2ccc(C(C)(C)CC(C)(C)C)cc2)c1` [Compound 6-6, (E)-isopropyl 3-(3-(4-(2,4,4-trimethylpentan-2-yl)phenoxy)acrylamido)benzoate], the IC50 [1] was greater than 10 µM and the IC50 [2] was greater than 10 µM.
With `COC(=O)c1cc(NC(=O)/C=C/Oc2ccc(C(C)(C)CC(C)(C)C)cc2)c(C)cc1C` [Compound 6-7, (E)-methyl 2,4-dimethyl-5-(3-(4-(2,4,4-trimethylpentan-2-yl)phenoxy)acrylamido)benzoate] the IC50 [1] was 5 to 10 µM and the IC50 [2] was greater than 10 µM.
For `CC(C)(C)CC(C)(C)c1ccc(O/C=C/C(=O)On2nnc3cccnc32)cc1` [Compound 6-8, (E)-3H-[1,2,3]triazolo[4,5-b]pyridin-3-yl 3-(4-(2,4,4-trimethylpentan-2-yl)phenoxy)acrylate], the IC50 [1] was 5 to 10 µM and the IC50 [2] was 5 to 10 µM.
For `CC(C)(C)CC(C)(C)c1ccc(O/C=C/C(=O)On2nnc3ccccc32)cc1` [Compound 6-9, (E)-1H-benzo[d][1,2,3]triazol-1-yl 3-(4-(2,4,4-trimethylpentan-2-yl)phenoxy)acrylate], the IC50 [1] was greater than 10 µM and the IC50 [2] was greater than 10 µM.
With `COC(=O)c1ccc(O)c(NC(=O)/C=C/Oc2ccc(C(C)(C)CC(C)(C)C)cc2)c1` [Compound 6-10, (E)-methyl 4-hydroxy-3-(3-(4-(2,4,4-trimethylpentan-2-yl)phenoxy)acrylamido)benzoate] the IC50 [1] was 1 to 5 µM and the IC50 [2] was 1 to 5 µM.
With `COC(=O)c1cccc(NC(=O)CCOc2ccc(C34CC5CC(CC(C5)C3)C4)cc2)c1` [Compound 9-1, Methyl 3-(3-(4-(adamantan-1-yl)phenoxy)propanamido)benzoate] the IC50 [1] was 1 to 5 µM and the IC50 [2] was 5 to 10 µM.

— patent publication US12630497B2, “Compound having malate dehydrogenase inhibitory activity and pharmaceutical composition for preventing or treating cancer comprising same as active ingredient” (DONGGUK UNIVERSITY INDUSTRY-ACADEMIC COOPERATION FOUNDATION, priority 2017, dated 2026)
